Experimental data published in patent US20020040062A1, “Protein kinase C activators and their use in decreasing expression of cell antigens” (The Trustees of Columbia University, priority 1993, published 2002).
Marks after values point to notes of the source that are not given here.

Tests used:
[1] = tested on: HLA Class II-DRβ antigen mRNA; assay: Northern blotting, steady-state HLA Class II-DRβ mRNA in T47D cells; format: cell-based, human; settings: 72 hr, 500 units/ml IFN-α or IFN-β, 50 units/ml IFN-γ, 0.1 μg/ml TPA, MEZ or ADMB, densitometry
Protocol: FIG. 3: Effect of interferon, ADMB, TPA and MEZ, alone and in combination with H-7, on steady-state mRNA levels of HLA Class I antigens, HLA Class II-DRβ antigen, c-erbB-2, ICAM-1 and GAPDH in T47D human breast carcinoma cells. […] Cultures were also grown in the presence of 0.1 μg/ml of H-7 for 72 hr with and without the additional compounds indicated above. Total cytoplasmic RNA was isolated and processed as described in “Detailed Description Of The Invention.” Control: CON; recombinant human leukocyte interferon-A: IFN-αA; recombinant human fibroblast interferon: IFN-β; recombinant human immune interferon: IFN-γ; ADMB; 3-(N-acetylamino)-5-(N-decyl-N-methylamino)-benzyl alcohol; TPA; 12-0-tetradecanoyl-phorbol-13-acetate; MEZ; mezerein; H-7: (1-(5-isoquinolinesulfonyl)-2-methylpiperazine dihydrochloride.
Steady-state levels of HLA Class I, HLA Class II-DRβ, c-erbB-2 and ICAM-I mRNA in control and treated T47D cells were determined by Northern blotting analysis of total cytoplasmic RNA probed with appropriate ^32P-labeled gene probes as previously described. Northern blots were also probed with a ^32P-labeled glyceraldehyde phosphate dehydrogenase (GAPDH) gene probe to verify equal […] under various experimental conditions. Following hybridization, the filters were washed and exposed for autoradiography.

[2] = tested on: HLA-DR; assay: FACS analysis of HLA-DR (MoAb L243) in WiDr human colon carcinoma cells; format: cell-based
Protocol: (§1) Cells were plated in 10 cm plates, media was changed 24 hours later with no addition (control) or addition of the indicated compounds and cells were incubated at 37° C. for the indicated time (72 or 96 hours). Cells were resuspended using 10× EDTA and antigen expression was determined as described (Leon, Mesa-Tejada, Gutierrez, Estabrook, Greiner, Schlom & Fisher: Anticancer Res. 9:1639-1648, 1989; Leon, Gutierrez, Jiang, Estabrook, Waxman & Fisher: Cancer Immunol. Immmunother. 35:315-324, 1992).

[3] = tested on: CA19.9; assay: FACS analysis of CA19.9 (MoAb B67.4) in WiDr human colon carcinoma cells; format: cell-based
Protocol: as §1

[4] = tested on: MoAb K56; assay: FACS analysis of MoAb K56 binding in CBS human colon carcinoma cells; format: cell-based; settings: 96 hours
Protocol: as §1, with “for” for “for the indicated time (72 or”, “hours.” for “hours).”, “Breiner,” for “Greiner,”, “Immuno. Immunother. 35:315-324” for “Immunol. Immmunother. 35:315-324,”

[5] = tested on: HLA-DR; assay: FACS analysis of HLA-DR (MoAb L243) in CBS human colon carcinoma cells; format: cell-based; settings: 96 hours
Protocol: as §1, with “for” for “for the indicated time (72 or”, “hours.” for “hours).”, “Breiner,” for “Greiner,”, “Immuno. Immunother. 35:315-324” for “Immunol. Immmunother. 35:315-324,”

[6] = tested on: c-erbB-2; assay: FACS analysis of c-erbB-2 surface expression in T47D cells; format: cell-based, human; settings: 72 hr; for c-erbB-2 level of upregulation versus untreated control cells (equivalent to 1.0) / Antigenic Expression (MFI) c-erbB-2: 0.1 μg/ml TPA or MEZ; for c-erbB-2 level of upregulation versus untreated control cells (equivalent to 1.0): presence or absence of 0.1 μg/ml H-7; for Antigenic Expression (MFI) c-erbB-2: presence or absence of 0.1 μg/ml H-7, FACStar
Text: (§2) IgG1 murine monoclonal antibody Cu18 and Cu46 recognize two different epitopes of a highly restricted breast carcinoma associated glycoprotein of Mr 225,000 to 250,000 (BCA 225). This TAA is expressed intracytoplasmically and on the membrane of 94% of breast tumors tested and in the T47D human breast carcinoma cell line. BCA 225 is shed into the culture medium by T47D cells and into the sera of breast cancer patients. IgG2a monoclonal antibody L243 (anti HLA Class II-DR) recognizes a monomorphic HLA Class II-DR-α epitope (ATCC M355). Monoclonal antibody CL203.4 [40], which recognizes ICAM-I, was kindly provided by Dr. S. Ferrone, New York Medical College, NY. The c-erbB-2 monoclonal antibody which recognizes the extracellular domain of c-erbB-2 was obtained from Triton Biosciences, Inc., Alamedia, Calif. Monoclonal antibodies Cu18 and Cu46 were used at 0.05 μg/ml and monoclonal antibodies interacting with HLA Class II-DR, ICAM-1 and c-erbB-2 were used at 10 μg/ml. For each experiment, isotype matched control backgrounds (IgG for Cu18, Cu46 and ICAM-1, IgG2a for HLA Class Ii and IgG2b for c-erbB-2) were subtracted from the experimental results. Background from antimouse IgG FITC antibody was also subtracted from experimental results. Applicants never observed backgrounds higher than 2% of total cells for isotypic mouse IgG or higher than 5% for antimouse IgG FITC.
(§3) T47D cells treated with the various compounds were analyzed by flow cytometry using appropriate monoclonal antibody concentrations as described previously. Briefly, 1×10^5 cells were incubated with the test antibody for 30 min at 4° C., washed 3× with PBS and incubated with a goat a mouse F (ab)2 FITC conjugated test antibody at a 1:40 dilution for 30 min at 4° C. Cells were then washed 3× with PBS and analyzed on a FACStar (Beckon Dickinson, Mountain View, Calif.) or a Coulter Epics IV FACS (Coulter, Hialeah, Fla.). Results are expressed as mean fluorescence intensity (MFI) units which were determined as described previously. MFI=(mean channel fluorescence in fluorescence positive antibody-binding cells×% of fluorescence positive antibody-binding cells)−(mean channel fluorescence in unstained cells×% of fluorescence positive cells in the unstained population). All studies were performed a minimum of three or four times with duplicate samples in each experiment. Replicate samples within individual experiments varied by ≦10% and variation between experiments were generally ≦20%.

[7] = tested on: ICAM-1; assay: FACS analysis of ICAM-1 surface expression in T47D cells; format: cell-based, human; settings: 72 hr; for ICAM-1 level of upregulation versus untreated control cells (equivalent to 1.0): presence or absence of 0.1 μg/ml H-7; for ICAM-1 relative increase in expression versus untreated controls (equivalent to 1.0): presence or absence of 1.0 μg/ml H-7
Text: as §2, §3

[8] = 72 Hour Treatment, ADMB 0.01 μg/ml
[9] = 72 Hour Treatment, ADMB 0.1 μg/ml
[10] = 72 Hour Treatment, ADMB 1.0 μg/ml
[11] = 96 Hour Treatment, ADMB 0.01 μg/ml
[12] = 96 Hour Treatment, ADMB 0.1 μg/ml
[13] = 96 Hour Treatment, ADMB 1.0 μg/ml
[14] = 0.1 μg/ml TPA or MEZ, presence or absence of 0.1 μg/ml H-7, FACStar
[15] = 500 units/ml IFN-β or 50 units/ml IFN-γ
[16] = 500 units/ml IFN-β or 50 units/ml IFN-γ, presence or absence of 1.0 μg/ml H-7, Coulter Epics IV FACS
[17] = 72 Hour Treatment, MEZ 100 ng/ml, IFN-γ 100 U/ml
[18] = 96 Hour Treatment, MEZ 100 ng/ml, IFN-γ 100 U/ml

| Molecule | increase in HLA Class II-DR antigen mRNA levels [1] | c-erbB-2 level of upregulation versus untreated control cells (equivalent to 1.0) [6] | Antigenic Expression (MFI) c-erbB-2 [6] | ICAM-1 level of upregulation versus untreated control cells (equivalent to 1.0) ([7]; 0.1 μg/ml TPA or MEZ) | Antigenic Expression (MFI) ICAM-1 [7, 14] | ICAM-1 relative increase in expression versus untreated controls (equivalent to 1.0) [7, 15] | Antigenic Expression (MFI) ICAM-1 [7, 16] | Monoclonal Antibody Binding (MFI) MoAb L243 (HLA-DR) [2, 17] | Monoclonal Antibody Binding (MFI) MoAb L243 (HLA-DR) [2, 18] | Monoclonal Antibody Binding (MFI) MoAb B67.4 (CA19.9) [3, 17] | Monoclonal Antibody Binding (MFI) MoAb B67.4 (CA19.9) [3, 18] | Monoclonal Antibody Binding (MFI) MoAb K56 ([4]; MEZ 1100 ng/ml, IFN-γ 100 U/ml) | Monoclonal Antibody Binding (MFI) MoAb L243 (HLA-DR) ([5]; MEZ 1100 ng/ml, IFN-γ 100 U/ml) | other results |
| --- | --- | --- | --- | --- | --- | --- | --- | --- | --- | --- | --- | --- | --- | --- |
| CCCCCCCCCCN(C)c1cc(CO)cc(NC(C)=O)c1 [ADMB, 3-(N-acetylamino)-5-(N-decyl-N-methylamino)-benzyl alcohol] | did not increase |  |  |  |  |  |  |  |  |  |  |  |  | Monoclonal Antibody Binding (MFI) MoAb L243 (HLA-DR) [2, 8]: 390 MFI; Monoclonal Antibody Binding (MFI) MoAb L243 (HLA-DR) [2, 9]: 317 MFI; Monoclonal Antibody Binding (MFI) MoAb L243 (HLA-DR) [2, 10]: 486* MFI; Monoclonal Antibody Binding (MFI) MoAb L243 (HLA-DR) [2, 11]: 434 MFI; Monoclonal Antibody Binding (MFI) MoAb L243 (HLA-DR) [2, 12]: 615* MFI; Monoclonal Antibody Binding (MFI) MoAb L243 (HLA-DR) [2, 13]: 806* MFI; Monoclonal Antibody Binding (MFI) MoAb B67.4 (CA19.9) [3, 8]: 1136 MFI; Monoclonal Antibody Binding (MFI) MoAb B67.4 (CA19.9) [3, 9]: 1172 MFI; Monoclonal Antibody Binding (MFI) MoAb B67.4 (CA19.9) [3, 10]: 1400* MFI; Monoclonal Antibody Binding (MFI) MoAb B67.4 (CA19.9) [3, 11]: 1512 MFI; Monoclonal Antibody Binding (MFI) MoAb B67.4 (CA19.9) [3, 12]: 2028* MFI; Monoclonal Antibody Binding (MFI) MoAb B67.4 (CA19.9) [3, 13]: 2417* MFI; Monoclonal Antibody Binding (MFI) MoAb K56 ([4]; ADMB 0.01 μg/ml): 2126 MFI; Monoclonal Antibody Binding (MFI) MoAb K56 ([4]; ADMB 0.1 μg/ml): 1715 MFI; Monoclonal Antibody Binding (MFI) MoAb K56 ([4]; ADMB 1.0 g/ml): 2420 MFI; Monoclonal Antibody Binding (MFI) MoAb L243 (HLA-DR) ([5]; ADMB 0.01 μg/ml): 4112 MFI; Monoclonal Antibody Binding (MFI) MoAb L243 (HLA-DR) ([5]; ADMB 0.1 μg/ml): 3328 MFI; Monoclonal Antibody Binding (MFI) MoAb L243 (HLA-DR) ([5]; ADMB 1.0): 6870* MFI |
| CC1CNCCN1S(=O)(=O)c1cccc2cnccc12.Cl.Cl (centres unmarked) [H-7, 1-(5-isoquinolinesulfonyl)-2-methylpiperazine dihydrochloride] |  | (1.0) | 7,045 MFI | (1.0) | 21,538 MFI | 1.0 | 54,080 MFI |  |  |  |  |  |  |  |
| C=C(C)[C@@]12O[C@@]3(c4ccccc4)O[C@@H]1[C@@H]1[C@@H]4O[C@]4(CO)[C@@H](O)[C@]4(O)C(=O)C(C)=C[C@H]4[C@@]1(O3)[C@H](C)[C@H]2OC(=O)/C=C/C=C/c1ccccc1 [MEZ, mezerein] | 1.2 fold | (2.6) | 18,385 MFI | (4.1) | 85,745 MFI |  |  | 1120* MFI | 2129* MFI | 1914* MFI | 4784* MFI | 3002* MFI | 9726* MFI | efficacy of upregulation of c-erbB-2 (fold-change in MFI, FIG. 2) ([6]; 0.1 μg/ml of ADMB, TPA or MEZ): most effective PKC activator tested |
| CCCCCCCCCCCCCC(=O)O[C@@H]1[C@@H](C)[C@@]2(O)[C@@H](C=C(CO)C[C@]3(O)C(=O)C(C)=C[C@@H]23)[C@H]2C(C)(C)[C@]12OC(C)=O [TPA, 12-0-tetradecanoyl-phorbol-13-acetate] | did not increase | (2.3) | 16,100 MFI | (3.0) | 63,175 MFI |  |  |  |  |  |  |  |  |  |
| IFN-β: recombinant human fibroblast interferon with a serine substituted for a cysteine at position 17 (protein, UniProt P01574 22-187, looked up, variant C17S) Interferon beta: MSYNLLGFLQRSSNFQSQKLLWQLNGRLEYCLKDRMNFDIPEEIKQLQQFQKEDAALTIYEMLQNIFAIFRQDSSSTGWNETIVENLLANVYHQINHLKTVLEEKLEKEDFTRGKLMSSLHLKRYYGRILHYLKAKEYSHCAWTIVRVEILRNFYFINRLTGYLRN | 1.2 fold |  |  |  |  | 1.8 | 97,013 MFI |  |  |  |  |  |  |  |
| IFN-γ: recombinant human immune interferon produced in Escherichia coli (protein, UniProt P01579 24-161, looked up) Interferon gamma: QDPYVKEAENLKKYFNAGHSDVADNGTLFLGILKNWKEESDRKIMQSQIVSFYFKLFKNFKDDQSIQKSVETIKEDMNVKFFNSNKKKRDDFEKLTNYSVTDLNVQRKAIHELIQVMAELSPAAKTGKRKRSQMLFRG | 1.25 fold |  |  |  |  | 3.5 | 191,490 MFI | 1724* MFI | 2376* MFI | 2271* MFI | 3191* MFI | 3126* MFI | 14972* MFI | activity in increasing Class II HLA-DR antigens relative to ADMB [2]: approximately 3 ×; activity in increasing Class II HLA-DR antigens relative to ADMB [5]: approximately 2 × |
